# Source: patent EP4818172A1, “ASCORBIC ACID DERIVATIVES AND COSMETIC CONTAINING SAME” (Seiwa Kasei Co., Ltd., priority 2023, dated 2025)
# Tests used:
# [1] = Stability test -2: odor and coloration of cream stored at 50°C; type: physicochemical; conditions: Test Example 2, cream stored at 50°C, total score of 10 panelists
# Method: (§1) For each of the samples of Synthesis Examples 1 to 6, 1% aqueous solutions were adjusted to pH 3, 5, 7, 8, and 9 with a dilute potassium hydroxide aqueous solution, and then placed in 50 mL screw tubes and • 2: Color changes compared to immediately after preparation. • 1: Strongly colored compared to immediately after preparation. Based on the results of the above evaluation, the following classification was made: • ○: Total score of 10 panelists is 25 or more • △: Total score of 10 panelists is 16-24 • ×: The total score of 10 panelists is 15 or less [Table 10]
# (§2) For each of the samples of Synthesis Examples 9 to 32, (a) and (b) shown in Table 12 were each heated and mixed. After cooling, (c) shown in Table 12 was added to prepare a cream with a pH of 7 or 9. The sample was stored at 50°C for 4 weeks, and the residual rate was determined in the same manner as in Test Example 1 and evaluated according to the criteria described below. The odor and coloration were also evaluated according to the same method and criteria as in Test Example 1. The results regarding the residual rate are shown in Tables 13 and 14, and the results regarding the odor and coloration are shown in Tables 15 and 16.
# [2] = Stability test -2: residual rate in cream of pH 7 or 9 stored at 50°C; type: physicochemical; conditions: cream with 4.0 W/W% derivative
# Method: as §2
# • ⊚: 95% or more • ○: 85% or more, less than 95% • ×: Less than 85% [Table 12]
# [3] = tested on: Normal human dermal fibroblasts (NHDF); assay: Hyaluronic acid production promoting effect (ELISA of supernatant); type: cell-based; conditions: sample at 10 mM or less in serum-free D-MEM, cultured 48 hours, % of control group (100%), N=3
# Method: Normal human dermal fibroblasts (NHDF) were prepared in D-MEM containing 5% (v/v) fetal bovine serum to a cell density of 2.5 × 10^4 cells/well, and then pre-incubated on a 96-well plate for 24 hours. After removing the medium, samples prepared in serum-free D-MEM were added to each well and cultured for 48 hours. After the culture was completed, the amount of hyaluronic acid in the supernatant was quantified by ELISA. Measurements were performed in triplicate (N=3).
# The amount of hyaluronic acid produced when the sample was measured at a concentration of 10 mM or less was compared with that of the control group, and the results (% values when the control group is set to 100%) are shown in Tables 18 to 20 based on the following criteria. • <100%: ± • 100-120%: + • 120%<: ++ [Table 18]
# [4] = Stability test -1: residual rate of 1% aqueous solutions at pH 3 to 9 on storage; type: physicochemical; conditions: for Residual Rate After 2 weeks / Residual Rate After 4 weeks: 1% aqueous solution
# [5] = Stability test -1: odor and coloration scored by 10 panelists; type: physicochemical; conditions: Test Example 1, aqueous solution, total score of 10 panelists
# Method: as §1
Compound,Coloration After 2 weeks [1],Odor After 2 weeks [1],Coloration After 4 weeks [1],Odor After 4 weeks [1],"Residual Rate After 2 weeks ([2]; pH7, stored at 50°C)","Residual Rate After 4 weeks ([2]; pH7, stored at 50°C)","Residual Rate After 2 weeks ([2]; pH9, stored at 50°C)","Residual Rate After 4 weeks ([2]; pH9, stored at 50°C)",Hyaluronic acid production-promoting effect [3],also measured
"CC(C)CCCCCCCCCCCCCCC(=O)OCC(OC(=O)CCCCCCCCCCCCCCC(C)C)C1OC(=O)C2=C1OCCO2 (stereo not drawn) [Synthesis Example 32, 5,6-O-diisostearoyl-2,3-O-(1,2-ethanediyl) ascorbic acid]",○ (Total score of 10 panelists is 25 or more),○ (Total score of 10 panelists is 25 or more),○ (Total score of 10 panelists is 25 or more),Δ,⊚ (95% or more),⊚ (95% or more),⊚ (95% or more),⊚ (95% or more),+ (100-120%),
"CCCCCCCC(=O)OCC(O)C1OC(=O)C2=C1OCCCO2 (stereo not drawn) [synthesis example 22, 6-O-octanoyl-2,3-O-(1,3-propanediyl) ascorbic acid]",○ (Total score of 10 panelists is 25 or more),○ (Total score of 10 panelists is 25 or more),○ (Total score of 10 panelists is 25 or more),Δ,⊚ (95% or more),⊚ (95% or more),⊚ (95% or more),⊚ (95% or more),++ (120%<),
"CCCCCCCCCCCCCCCC(=O)OCC(OC(=O)CCCCCCCCCCCCCCC)C1OC(=O)C2=C1OCCCCO2 (stereo not drawn) [synthetic example 16, 5,6-O-dipalmitoyl-2,3-O-(1,4-butanediyl) ascorbic acid]",○ (Total score of 10 panelists is 25 or more),○ (Total score of 10 panelists is 25 or more),○ (Total score of 10 panelists is 25 or more),Δ,⊚ (95% or more),⊚ (95% or more),⊚ (95% or more),⊚ (95% or more),++ (120%<),
"CCCCCCCCCCCC(=O)OCC(O)C1OC(=O)C2=C1OCCCO2 (stereo not drawn) [synthesis example 24, 6-O-lauroyl-2,3-O-(1,3-propanediyl) ascorbic acid]",○ (Total score of 10 panelists is 25 or more),○ (Total score of 10 panelists is 25 or more),○ (Total score of 10 panelists is 25 or more),Δ,⊚ (95% or more),⊚ (95% or more),⊚ (95% or more),⊚ (95% or more),++ (120%<),
Bisglyceryl ascorbic acid [reference compound],,,,,,,,,,"Residual Rate After 2 weeks ([4]; pH3, stored at 50°C): ⊚; Residual Rate After 4 weeks ([4]; pH3, stored at 50°C): ⊚; Residual Rate After 2 weeks ([4]; pH5, stored at 50°C): ⊚; Residual Rate After 4 weeks ([4]; pH5, stored at 50°C): ⊚; Residual Rate After 2 weeks ([4]; pH7, stored at 50°C): ×; Residual Rate After 4 weeks ([4]; pH7, stored at 50°C): ×; Residual Rate After 2 weeks ([4]; pH8, stored at 50°C): ×; Residual Rate After 4 weeks ([4]; pH8, stored at 50°C): ×; Residual Rate After 2 weeks ([4]; pH9, stored at 50°C): ×; Residual Rate After 4 weeks ([4]; pH9, stored at 50°C): ×; Coloration After 2 weeks [5]: Δ; Odor After 2 weeks [5]: Δ; Coloration After 4 weeks [5]: Δ; Odor After 4 weeks [5]: Δ"
"CCCC(=O)OCC(O)C1OC(=O)C2=C1OCCCO2 (stereo not drawn) [synthesis example 20, 6-O-butanoyl-2,3-O-(1,3-propanediyl) ascorbic acid]",○ (Total score of 10 panelists is 25 or more),○ (Total score of 10 panelists is 25 or more),○ (Total score of 10 panelists is 25 or more),Δ,⊚ (95% or more),⊚ (95% or more),⊚ (95% or more),⊚ (95% or more),++ (120%<),
"CC(C)CCCCCCCCCCCCCCC(=O)OCC(O)C1OC(=O)C2=C1OCCCO2 (stereo not drawn) [synthetic example 28, 6-O-isostearoyl-2,3-O-(1,3-propanediyl) ascorbic acid]",○ (Total score of 10 panelists is 25 or more),○ (Total score of 10 panelists is 25 or more),○ (Total score of 10 panelists is 25 or more),Δ,⊚ (95% or more),⊚ (95% or more),⊚ (95% or more),⊚ (95% or more),++ (120%<),
O=C1O[C@H]([C@@H](O)CO)C(O)=C1O [Ascorbic acid],,,,,,,,,± (<100%),"Residual Rate After 2 weeks ([4]; pH3, stored at 50°C): ○; Residual Rate After 4 weeks ([4]; pH3, stored at 50°C): Δ; Residual Rate After 2 weeks ([4]; pH5, stored at 50°C): ○; Residual Rate After 4 weeks ([4]; pH5, stored at 50°C): ×; Residual Rate After 2 weeks ([4]; pH7, stored at 50°C): ×; Residual Rate After 4 weeks ([4]; pH7, stored at 50°C): ×; Residual Rate After 2 weeks ([4]; pH8, stored at 50°C): ×; Residual Rate After 4 weeks ([4]; pH8, stored at 50°C): ×; Residual Rate After 2 weeks ([4]; pH9, stored at 50°C): ×; Residual Rate After 4 weeks ([4]; pH9, stored at 50°C): ×; residual rate ([4]; Test Example 1, pH 7 to 9, stored at 50°C, after two weeks): less than 30%; Coloration After 2 weeks [5]: Δ; Odor After 2 weeks [5]: Δ; Coloration After 4 weeks [5]: × (The total score of 10 panelists is 15 or less); Odor After 4 weeks [5]: × (The total score of 10 panelists is 15 or less)"
